From patent publication US8933031B2, “Polypeptide inhibiting angiogenesis and application thereof” (Shanghai First People's Hospital, priority 2008, dated 2015)

Key:
[1] = system: chick embryo chorioallantoic membrane; format: in vivo; settings: 10 μg or 50 μg AU6 on filter paper, 2 days, vs PBS control group
Procedure: 1.2 Preparation of Model and Intervention Test: The chick fertile eggs of 1-2 days old were randomly grouped into 3 groups, which were respectively a control group, a 10 μg AU6 intervention group, and a 50 μg AU6 intervention group, with 9-15 eggs for each group. The surface of the fertile eggs was cleansing with tap water, and then the eggs were soaked in 0.2% benzalkonium bromide (bromo-geramine) solution for 5-10 minutes. The eggs were placed with the blunt end upward, and hatched in an incubator under 37° C. and 60-70% humidity. The eggs were overturned for at least two times per day, and were hatched for 5 days with 24 hours as one day. Under sterile condition, a small hole of about 1-2cm^2 was created at the blunt end (air chamber end) with a nipper. […] Whatman filter papers with a diameter of 5mm were used as a sample carrier, each of which adsorbed 5 μl of PBS solution containing 0 μg, 10 μg or 50 μg of AU6. After air drying, the papers were placed into the center of the chorioallantoic membrane. […]
1.3 Counting the Number of Micrangiums in the Chorioallantoic Membrane: the adhesive tape was removed, and the micrangiums newly generated on the chorioallantoic membrane were observed. The number of micrangiums (with diameter no greater than 10 μm) within 5 mm around the filter paper for each group was counted under stereomicroscope. […]

[2] = Water solubility of synthesized polypeptide; format: physicochemical; settings: white powder
[3] = system: corneal angiogenesis induced by VEGF; format: in vivo
From the text: 1.2 Experimental Animal and Material: Healthy, male C57B1/6 mice of 5-6 weeks old weighing about 20 g were purchased from Laboratory Animal Center of Chinese Academy of Sciences. Sucrose octasulfate-aluminum complex was purchased from Sigma-Aldrich, USA. PolyHEMA (poly(2-hydroxyethylmethacylate)) was purchased from Aldrich, USA. And human recombinant VEGF165 was purchased from SIGMA, USA.
1.2 Preparation of Model and Intervention Test: 12% PolyHEMA in an ethanol solution was mixed with an equal volume of normal saline solution containing sucrose octasulfate-aluminum complex powder, thus forming blank slow-release particles with a volume of 0.35 mm*0.35 mm*0.20 mm. 160 ng of VEGF and different amounts (0 μg, 1.0 μg, 2.0 μg) of the small peptides were added into said particles. The resultant products were stored at −20° C., ready for use. The above operations were done under a sterile condition. Thirty C57B1/6 mice (30 eyes) were randomly grouped into a control group (VEGF group), VEGF+1.0 μg AU6 group, and VEGF+2.0 μg AU6 group, with 10 eyes for each group. Under a sterile condition, 23G syringe needle was used to perform blunt separation between the layers of the corneal stroma in the experimental eyes, so as to form a pouch of 0.5 mm*0.5 mm. The particles containing 160 ng VEGF and different amounts of small peptides were implanted into the pouches in the ocular cornea in the mice of each group, and were made to have a distance of 0.6-0.8 mm from limbus. After operation, 0.5% aureomycin oculentum was applied to the eyes to prevent infection and reduce irritation. Photos were obtained 7 days after operation to observe the growth of newly generated blood vessel in the cornea, and a histopathological examination was performed concurrently.
1.3 Quantitative Measurement of Corneal Neovascularization: the length of the new blood vessels grown from limbus was measured 7 days after operation. The area of the new blood vessel was calculated based on the longest blood vessel which had less continuous bending and which grew toward the slow release particles. Formula is as follows: Area (mm^2)=[…]*π*VL (mm)*CN*0.4 (mm), wherein VL is the length of the longest new blood vessel grown from limbus to the cornea (maximal vessel length), and CN represents the clock hours of corneal neovascularization (the cornea is dividing into clock hours).
1.4 Qualitative Observation of Corneal Neovascularization: Each group of animals was sacrificed by excessive anaesthesia 7 days after operation. The eyeballs were obtained under a sterile condition, and fixed in 10% neutral formaldehyde, and then subjected to histopathological examination. The samples were embedded within paraffin and cut into 3 μm sections, HE stained, and observed under light microscope.
1.5 Statistical Analysis: The experimental data were represented as x±s. The length of the longest new blood vessel in cornea, clock hours and area for each group were compared by one-way ANOVA. P<0.05 indicates statistical significance.

[4] = system: retinal neovascularization induced by anoxia; format: in vivo; settings: intravitreal AU6 (5 μg, 10 μg) 12 days after birth, read 17 days after birth, vs model-treated group
Procedure: 1.1 Materials and Main Devices: Healthy, neonatal C57B1/6 mice, 7 days age, weighing about 4 g were purchased from Laboratory Animal Center of Chinese Academy of Sciences. The sex of the mice was not limited. FITC-dextran (molecular weight about 2*10^6) was purchased from SIGMA, USA.
1.2 Preparation of Model and Intervention Test: Neonatal mice of 10 nests were randomly grouped into 5 groups, which respectively were oxygen group, oxygen plus PBS group, oxygen plus 5 μg AU6 group, oxygen plus 10 μg AU6 group, and control group, with 10-11 mice for each group. Seven days after birth, except the control group, all of the other groups of mice were placed in an airproof drying cabinet together with their mother mice of the same nest. Wet pure oxygen was introduced into the drying cabinet, and the oxygen concentration in volume was maintained as 75%±5%. The oxygen concentration was measured every 3-6 hours by using oxygen meter. The control group was incubated normally in air. Twelve days after birth, 0.5 μl PBS solution containing respectively 0, 5 μg, and 10 μg AU6 were injected into the vitreous chambers of the mice in the oxygen plus PBS group and in the oxygen plus AU6 group (5 μg, and 10 μg).
1.3 FITC-dextran Retinal Angiography and Flat-mounts: Seventeen days after birth, 50 mg/ml FITC-dextran solution were perfused into the left ventricle of mice in each group. Then the eyeballs immediately were obtained, fixed in paraformaldehyde solution for 5-24 hours at 4° C. And then the retinas were isolated and flat-mounted. The morphological change of the retinal blood vessel was observed under fluorescence microscope.
1.4 Quantitative Measurement of Retinal Neovascularization: The animals in each group were sacrificed by excessive anaesthesia 17 days after birth. The eyeballs were obtained, and fixed in 10% neutral formaldehyde, and then subjected to histopathological examination. […] The numbers of the nucleus of the vascular endothelial cells which broke through the retinal inner limiting membrane were counted under light microscope. […]

[5] = 160 ng VEGF + 1.0 or 2.0 μg AU6 slow-release particles, 7 days after operation, vs control group
[6] = 7 days after operation, AU6 intervention group

For “YRGKKA ((1)..(6) Peptide AU6 for inhibiting angiogenesis)”, the “numbers of micrangiums within 5 mm around the filter paper” value [1] was “significantly less”, the water solubility [2] was “good” and the “clock hours of corneal neovascularization” value [3, 5] was “significant decrease”. For the same substance, the “longest blood vessel length of the new blood vessel” value [3, 5] was “significant decrease”, the “area of blood vessel” value ([3]; 160 ng VEGF + 1.0 or 2.0 μg AU6 slow-release particles, 7 days after operation, vs control group, calculated from VL and CN) was “significant decrease” and the “blood capillary lumens in corneal stroma (HE stained sections)” value [3, 6] was “very few”. For the same substance, the “oedema in the corneal tissue (HE stained sections)” value [3, 6] was “no obvious oedema”, the “toxicity to each layer of corneal tissues” value ([3]; mouse, in vivo) was “not observed” and the “neovascular clusters (FITC-dextran retinal flat-mounts)” value [4] was “reduced”. The “non-perfusion area (FITC-dextran retinal flat-mounts)” value [4] was “narrowed” and the “nucleus of vascular endothelial cells which broke through the inner limiting membrane” value [4] was “obviously less”.
